# Key:
# CFTR [1] = molecular target: T1, CFTR (Homo sapiens, UniProt P13569); assay: LL-37 secretion by cultured hMSCs with or without CFTR inhibition; assay type: cell-based
# T1 construct: endogenous in cells; host or cells: human mesenchymal stem cells (hMSCs) from bone marrow of healthy volunteers
# Description: FIG. 11 illustrates that hMSCs and BMM cells secrete LL-37. hMSCs utilized in the animal models were cultured in vitro with and without the addition of 0.5 ug/ml LPS (n=5 preparations) with or without inhibition of CFTR with I-172 (10 ug/ml for 48 hours) and incubated for 24 hours. […] We used the student t-test for these analyses.
# (§1) To determine if CF MSCs express CFTR to validate the I-172 studies, we took advantage of an immortal mouse derived MSC clone BMC9, especially since we have a highly reproducible mouse Cftr gene expression assay in our CF animal CORE center. These cells are abundant and have s a MSC phenotype when grown at 37° C. […] The sensitivity and specificity of our Cftr expression assay is 40±2 Ct. If we had used a lower expressing tissue, the % of Cftr levels would be higher. BMC9 cells cultured with I-172 (10 μg/ml, for 48 hours) secreted 37±13% (Mean±SEM, n=3) less LL-37 than BMC9 cells not cultured with I-172 (P≦0.05). […] Our future studies are aimed at studying the differences between and Cftr deficient MSCs and control MSCs.
# CFTR [2] = molecular target: T2, CFTR (Mus musculus, UniProt P26361); assay: LL-37 secretion by BMC9 cells with CFTR inhibition; assay type: cell-based; conditions: 10 μg/ml, 48 hours; Mean±SEM, n=3
# T2 construct: BMC9 cells have 0.36±0.14% Cftr expression; endogenous in cells; host or cells: BMC9 immortal mouse MSC clone
# Description: as §1
# T1 sequence (P13569 whole entry): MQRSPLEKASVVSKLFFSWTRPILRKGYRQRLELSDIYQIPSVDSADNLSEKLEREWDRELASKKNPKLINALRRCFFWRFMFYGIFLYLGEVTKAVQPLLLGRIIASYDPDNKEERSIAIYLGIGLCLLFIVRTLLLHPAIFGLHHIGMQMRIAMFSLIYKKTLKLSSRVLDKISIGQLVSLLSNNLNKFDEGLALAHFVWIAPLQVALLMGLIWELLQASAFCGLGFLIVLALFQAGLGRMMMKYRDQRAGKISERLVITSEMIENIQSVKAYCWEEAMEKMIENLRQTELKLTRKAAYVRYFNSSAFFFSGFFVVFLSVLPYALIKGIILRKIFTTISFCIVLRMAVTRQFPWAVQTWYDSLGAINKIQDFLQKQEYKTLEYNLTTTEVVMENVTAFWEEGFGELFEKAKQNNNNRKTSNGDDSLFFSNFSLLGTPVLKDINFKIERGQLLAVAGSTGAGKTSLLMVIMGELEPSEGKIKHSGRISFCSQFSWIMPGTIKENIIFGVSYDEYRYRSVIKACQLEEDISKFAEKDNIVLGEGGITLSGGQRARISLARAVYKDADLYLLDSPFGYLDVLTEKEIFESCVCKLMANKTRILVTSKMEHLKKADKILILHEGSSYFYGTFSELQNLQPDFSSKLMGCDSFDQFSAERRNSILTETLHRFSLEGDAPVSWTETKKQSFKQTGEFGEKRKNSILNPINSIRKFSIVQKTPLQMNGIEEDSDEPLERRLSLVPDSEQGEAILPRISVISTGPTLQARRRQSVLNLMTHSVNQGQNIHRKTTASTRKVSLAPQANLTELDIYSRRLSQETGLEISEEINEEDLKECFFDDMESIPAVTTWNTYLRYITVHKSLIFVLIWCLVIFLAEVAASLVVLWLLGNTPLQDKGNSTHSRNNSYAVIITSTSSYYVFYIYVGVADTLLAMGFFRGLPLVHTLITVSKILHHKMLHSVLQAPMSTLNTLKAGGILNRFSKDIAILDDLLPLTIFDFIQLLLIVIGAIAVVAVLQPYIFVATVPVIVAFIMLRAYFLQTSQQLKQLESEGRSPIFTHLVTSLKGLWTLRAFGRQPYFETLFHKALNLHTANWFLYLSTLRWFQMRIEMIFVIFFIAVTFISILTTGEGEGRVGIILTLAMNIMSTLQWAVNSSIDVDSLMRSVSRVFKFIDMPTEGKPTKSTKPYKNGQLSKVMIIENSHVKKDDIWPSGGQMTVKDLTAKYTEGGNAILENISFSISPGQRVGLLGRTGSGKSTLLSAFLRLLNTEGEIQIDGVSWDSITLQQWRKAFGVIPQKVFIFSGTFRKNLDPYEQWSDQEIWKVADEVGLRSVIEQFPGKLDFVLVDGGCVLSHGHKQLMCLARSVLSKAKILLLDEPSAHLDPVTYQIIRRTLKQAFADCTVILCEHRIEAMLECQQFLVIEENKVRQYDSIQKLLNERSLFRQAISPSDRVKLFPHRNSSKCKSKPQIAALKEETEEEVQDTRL
# T2 sequence (P26361 whole entry): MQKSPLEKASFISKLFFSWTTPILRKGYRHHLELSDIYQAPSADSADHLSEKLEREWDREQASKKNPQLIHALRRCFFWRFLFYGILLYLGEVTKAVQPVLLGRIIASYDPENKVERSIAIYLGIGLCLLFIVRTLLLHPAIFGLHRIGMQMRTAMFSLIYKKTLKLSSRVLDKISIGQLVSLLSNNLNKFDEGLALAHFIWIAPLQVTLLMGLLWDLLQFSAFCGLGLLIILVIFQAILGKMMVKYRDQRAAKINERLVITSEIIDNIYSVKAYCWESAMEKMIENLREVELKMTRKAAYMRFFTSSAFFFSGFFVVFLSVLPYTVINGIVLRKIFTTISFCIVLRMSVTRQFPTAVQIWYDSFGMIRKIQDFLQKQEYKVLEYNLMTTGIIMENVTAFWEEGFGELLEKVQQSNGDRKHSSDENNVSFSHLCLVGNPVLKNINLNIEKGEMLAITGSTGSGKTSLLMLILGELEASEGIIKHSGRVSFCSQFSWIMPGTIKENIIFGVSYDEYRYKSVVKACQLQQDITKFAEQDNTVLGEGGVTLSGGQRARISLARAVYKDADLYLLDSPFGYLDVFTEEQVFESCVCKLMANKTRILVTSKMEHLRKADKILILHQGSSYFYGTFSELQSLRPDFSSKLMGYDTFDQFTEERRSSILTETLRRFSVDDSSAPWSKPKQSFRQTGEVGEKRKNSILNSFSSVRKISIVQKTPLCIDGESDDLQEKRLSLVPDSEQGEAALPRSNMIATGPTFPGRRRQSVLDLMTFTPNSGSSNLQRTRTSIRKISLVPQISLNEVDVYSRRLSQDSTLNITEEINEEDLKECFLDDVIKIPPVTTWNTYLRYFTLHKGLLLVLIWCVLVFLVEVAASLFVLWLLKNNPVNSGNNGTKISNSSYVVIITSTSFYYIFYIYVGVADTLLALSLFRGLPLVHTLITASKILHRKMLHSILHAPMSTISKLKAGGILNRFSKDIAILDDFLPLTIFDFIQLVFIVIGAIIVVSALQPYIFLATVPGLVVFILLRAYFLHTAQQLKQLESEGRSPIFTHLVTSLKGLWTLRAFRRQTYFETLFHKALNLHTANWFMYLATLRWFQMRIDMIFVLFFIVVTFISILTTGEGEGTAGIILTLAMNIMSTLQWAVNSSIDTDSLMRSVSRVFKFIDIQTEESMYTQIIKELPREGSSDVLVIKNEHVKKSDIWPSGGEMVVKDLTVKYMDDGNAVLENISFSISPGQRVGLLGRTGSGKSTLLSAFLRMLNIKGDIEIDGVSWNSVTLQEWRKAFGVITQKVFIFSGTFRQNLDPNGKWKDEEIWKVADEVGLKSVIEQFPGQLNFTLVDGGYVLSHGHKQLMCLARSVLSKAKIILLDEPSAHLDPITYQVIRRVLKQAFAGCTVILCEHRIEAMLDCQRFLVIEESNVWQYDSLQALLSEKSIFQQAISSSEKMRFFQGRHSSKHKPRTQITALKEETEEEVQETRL
smiles,measurement,setting,value
O=C(O)c1ccc(/C=C2\SC(=S)N(c3cccc(C(F)(F)F)c3)C2=O)cc1 [I-172],amount of LL-37 after LPS stimulation,"CFTR [1]; 10 ug/ml for 48 hours then LPS, relative to LPS control",even further suppressed
same,ability of hMSCs to secrete LL-37,"CFTR [1]; 10 ug/ml for 48 hours, relative to un-stimulated control",significantly reduced
same,less LL-37 secreted than BMC9 cells not cultured with I-172,CFTR [2],37±13%

# Reference: US20140134140A1, “MESENCHYMAL STEM CELL COMPOSITIONS FOR THE TREATMENT OF MICROBIAL INFECTIONS” (Case Western Reserve University, priority 2012, published 2014)
